Experimental data: patent publication US20160193216A1 (Nimbus Iris, Inc., priority 2012, published 2016)
pIC50: −log10 of the molar value. Counter-ions that a name gives are not always drawn. Like-named read-outs stand apart in the source and are kept apart here.

Assays:
[1] = test system: THP-1 cells; assay: LPS induced cytokine (TNFα and IL8) production assay in THP-1 cells; type: cell-based; conditions: Homo sapiens, 300 ng/mL LPS
Method: Cytokine Production Assay
Provided compounds were also assayed in an LPS (Lipopolysacharide) or R848 (TLR-7 agonist) induced cytokine (TNFα and IL8) production assay in THP-1 cells, human peripheral blood mononuclear cells (hPBMC), and whole blood. The exemplary protocol for this assay in THP-1 cells was as follows below.
THP-1 cells from ATCC (TIB-202) were cultured in RPMI Medium 1640 (Invitrogen, Cat No. A10491-01), 10% fetal bovine serum (Invitrogen, Cat No. 10099141, Lot No. 8172882) containing 100 U/mL Penicillin, 100 μg/mL streptomycin (Invitrogen, Cat No. 15140-122), and 50 uM 2-Mercaptoethanol (Invitrogen, Cat No. 21985023). LPS-EK ultra pure (Invivogen, Cat No. tlrl-peklps) was used to induce IL8 and TNFα production, that was detected in the cell culture supernatant by IL8 HTRF kit (Cisbio, Cat No. 62IL8PEB) and TNFα HTRF kit (Cisbio, Cat No. 62TNFPEB), as per manufacturer instructions. Cells were cultured in 96 well assay plates at 100,000 cells per well, and compounds diluted in final 0.3% DMSO were pre-incubated with cells for 1 hour prior to stimulation with 300 ng/mL LPS. Cytokine production in cell supernatant was measured at 5 hours for TNFα and IL8 production, and for 16 hours for IL8 production and assessment of cell viability.
The compound numbers correspond to the compound numbers in Table 1. […] “NA” stands for “not assayed.”

[2] = target: T1, IRAK4 (Homo sapiens, UniProt Q9NWZ3); assay: IRAK-4 activity inhibition assay (Caliper); type: biochemical; conditions: 37 μM ATP, 3.5 nM IRAK4
T1 sequence (Q9NWZ3 1-460): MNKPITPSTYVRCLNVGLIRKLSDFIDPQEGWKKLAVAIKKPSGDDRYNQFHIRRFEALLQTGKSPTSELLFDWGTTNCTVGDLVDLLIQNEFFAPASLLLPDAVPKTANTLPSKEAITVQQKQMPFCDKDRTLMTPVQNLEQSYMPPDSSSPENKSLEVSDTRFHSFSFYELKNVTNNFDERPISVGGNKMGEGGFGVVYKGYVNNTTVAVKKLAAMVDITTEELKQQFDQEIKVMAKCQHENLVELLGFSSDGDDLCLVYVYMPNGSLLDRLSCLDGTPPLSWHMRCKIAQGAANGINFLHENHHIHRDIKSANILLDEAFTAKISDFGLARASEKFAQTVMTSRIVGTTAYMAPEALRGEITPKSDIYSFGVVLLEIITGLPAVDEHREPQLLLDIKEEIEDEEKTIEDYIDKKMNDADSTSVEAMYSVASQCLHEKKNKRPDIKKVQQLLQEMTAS

Row | SMILES | pIC50 ([1]; read-out: IL8 production IC50) | pIC50 ([1]; read-out: TNFα production IC50) | pIC50 [2]
1 | CN(C)[C@H]1CC[C@H](Oc2ncnc3sc4c(c23)[C@@H](CCO)CC4)CC1 [Compound I-34, 2-[(3R)-12-[[4-(dimethylamino)cyclohexyl]oxy]-7-thia-9,11-diazatricyclo[6.4.0.0[2,6]]dodeca-1(12),2(6),8,10-tetraen-3-yl]ethan-1-ol] | 5.30 to 6.00 | 5.30 to 6.00 | > 5.30
2 | CN(C)[C@H]1CC[C@H](Oc2ncnc3sc4c(c23)[C@@H](CC(F)(F)C(N)=O)CC4)CC1 [Compound I-144, 3-[(3R)-12-[[4-(dimethylamino)cyclohexyl]oxy]-7-thia-9,11-diazatricyclo[6.4.0.0[2,6]]dodeca-1(8),2(6),9,11-tetraen-3-yl]-2,2-difluoropropanamide] | ≥ 6.30 | ≥ 6.30 | > 5.30
3 | CN(C)[C@H]1CC[C@H](Oc2ncnc3sc4c(c23)[C@@H](CCC#N)CC4)CC1 [Compound I-42, 3-[(3S)-12-[[4-(dimethylamino)cyclohexyl]oxy]-7-thia-9,11-diazatricyclo 1[6.4.0.0[2,6]]dodeca-1(8),2(6),9,11-tetraen-3-yl]propanenitrile] | ≥ 6.30 | ≥ 6.30 | > 5.30
4 | CN(C)[C@H]1CC[C@H](Oc2ncnc3sc4c(c23)CN(S(C)(=O)=O)CC4)CC1 [Compound I-168, 4-([12-methanesulfonyl-8-thia-4,6,12-triazatricyclo[7.4.0.0-[2,7]]trideca-1(9),2(7),3,5-tetraen-3-yl]oxy)-N,N-dimethylcyclohexan-1-amine] | ≤ 5.30 | ≤ 5.30 | > 5.30
5 | CN(C)[C@H]1CC[C@H](Nc2ncnc3sc4c(c23)CC(C)(C)OC4)CC1 [Compound I-194, 4-N-[12, 12-dimethyl-11-oxa-8-thia-4,6-diazatricyclo[7.4.0.0[2,7]]trideca-1(9),2(7),3,5-tetraen-3-yl]-1-N, 1-N-dimethylcyclohexane-1,4-diamine] | 5.30 to 6.00 | ≤ 5.30 | > 5.30
6 | CN(C)[C@H]1CC[C@H](Oc2ncnc3sc4c(c23)[C@@H](CC(C#N)C(N)=O)CC4)CC1 (mixture of isomers) [Compound I-51, 2-cyano-3-(12-[[4-(dimethylamino)cyclohexyl]oxy]-7-thia-9,11-diazatricyclo[6.4.0.0[2,6]]dodeca-1(12),2(6),8,10-tetraen-3-yl)propanamide] | 6.00 to 6.30 | 6.00 to 6.30 | > 5.30
7 | NC(=O)C[C@H]1CCc2sc3ncnc(O[C@H]4CC[C@H](N5CCCCC5)CC4)c3c21 [Compound I-214, 2-[(3R)-12-[[4-(piperidin-1-yl)cyclohexyl]oxy]-7-thia-9,11-diazatricyclo[6.4.0.0[2,6]]dodeca-1(8),2(6),9,11-tetraen-3-yl]acetamide] | ≥ 6.30 | ≥ 6.30 | > 5.30
8 | CN(C)[C@H]1CC[C@H](Oc2ncnc3sc4c(c23)CC(CCO)CC4)CC1 (stereo partly shown) [Compound I-108, 2-[3-[[4-(dimethylamino)cyclohexyl]oxy]-8-thia-4,6-diazatricyclo[7.4.0.0[2,7]]trideca-1(9),2(7),3,5-tetraen-12-yl]ethan-1-ol formate] |  | 5.30 to 6.00 | > 5.30
9 | CN(C)[C@H]1CC[C@H](Oc2ncnc3sc4c(c23)[C@@H](CC(O)C(N)=O)CC4)CC1 (stereo partly drawn) [Compound I-57, 3-[(3R)-12-[[4-(dimethylamino)cyclohexyl]oxy]-7-thia-9,11-diazatricyclo[6.4.0.0[2,6]]dodeca-1(8),2(6),9,11-tetraen-3-yl]-2-hydroxypropanamide] | ≥ 6.30 | ≥ 6.30 | > 5.30
10 | CN(C)[C@H]1CC[C@H](Oc2ncnc3sc4c(c23)[C@@H](CCC(N)=O)CC4)CC1 [Compound I-44, 3-[(3S)-12-[[4-(dimethylamino)cyclohexyl]oxy]-7-thia-9,11-diazatricyclo[6.4.0.0[2,6]]dodeca-1(8),2(6),9,11-tetraen-3-yl]propanamide] | 5.30 to 6.00 | 6.00 to 6.30 | > 5.30
11 | CN(CC(=O)N1CCCC1)[C@H]1CC[C@H](Oc2ncnc3sc4c(c23)[C@@H](C[C@H](O)C(N)=O)CC4)CC1 [Compound I-149, (2S)-2-hydroxy-3-[(3R)-12-[(4-[methyl[2-oxo-2-(pyrrolidin-1-yl)ethyl]amino]cyclohexyl)oxy]-7-thia-9,11-diazatricyclo[6.4.0.0̂[2,6]]dodeca-1(8),2(6),9,11-tetraen-3-yl]propanamide] | 5.30 to 6.00 | 5.30 to 6.00 | > 5.30
12 | CC[C@@H](O)C[C@H]1CCc2sc3ncnc(O[C@H]4CC[C@H](N(C)C)CC4)c3c21 [Compound I-106] | 6.00 to 6.30 | 6.00 to 6.30 | > 5.30
13 | CCN[C@H]1CC[C@H](Oc2ncnc3sc4c(c23)[C@@H](C[C@H](O)C(N)=O)CC4)CC1 [Compound I-136, (2S)-3-[(3R)-12-[[4-(ethylamino)cyclohexyl]oxy]-7-thia-9,11-diazatricyclo[6.4.0.0[2,6]]dodeca-1(8),2(6),9,11-tetraen-3-yl]-2-hydroxypropanamide] | ≥ 6.30 | 6.00 to 6.30 | > 5.30
14 | CN(C)[C@H]1CC[C@H](Oc2ncnc3sc4c(c23)[C@@H](C[C@H](O)C(=O)NCO)CC4)CC1 [Compound I-100, (S)-3-((R)-4-(((1r,4R)-4-(dimethylamino)cyclohexyl)oxy)-6,7-dihydro-5H-cyclopenta[4,5]thieno[2,3-d]pyrimidin-5-yl)-2-hydroxy-N-(hydroxymethyl)propanamide] | 5.30 to 6.00 | 5.30 to 6.00 | > 5.30
15 | OC[C@@H]1CCc2sc3ncnc(O[C@H]4CC[C@H](N5CCOCC5)CC4)c3c2C1 [Compound I-215, [(12R)-3-[[4-(morpholin-4-yl)cyclohexyl]oxy]-8-thia-4,6-diazatricyclo[7.4.0.0[2,7]]trideca-1(9),2(7),3,5-tetraen-12-yl]methanol] | 5.30 to 6.00 | 6.00 to 6.30 | > 5.30
16 | CN(C)[C@H]1CC[C@H](Nc2ncnc3sc4c(c23)C[C@@H](C(N)=O)CC4)CC1 [Compound I-230, (12S)-3-[[4-(dimethylamino)cyclohexyl]amino]-8-thia-4,6-diazatricyclo[7.4.0.0[2,7]]trideca-1(9),2(7),3,5-tetraene-12-carboxamide] | ≤ 5.30 | ≤ 5.30 | > 5.30
17 | CN(C)[C@H]1CC[C@H](Oc2ncnc3sc4c(c23)C[C@H](CCO)CC4)CC1 [Compound I-110, 2-[(12R)-3-[[4-(dimethylamino)cyclohexyl]oxy]-8-thia-4,6-diazatricyclo[7.4.0.0[2,7]]trideca-1(9),2(7),3,5-tetraen-12-yl]ethan-1-ol formate] | ≥ 6.30 | 6.00 to 6.30 | > 5.30
18 | CN(CC(=O)N1CCCC1)[C@H]1CC[C@H](Oc2ncnc3sc4c(c23)[C@@H](CCC(N)=O)CC4)CC1 [Compound I-94, 3-((S)-4-(((1r,4S)-4-(methyl(2-oxo-2-(pyrrolidin-1-yl)ethyl)amino)cyclohexyl)oxy)-6,7-dihydro-5H-cyclopenta[4,5]thieno[2,3-d]pyrimidin-5-yl)propanamide] |  | ≤ 5.30 | > 5.30
19 | CN(C)[C@H]1CC[C@H](Oc2ncnc3sc4c(c23)[C@@H](C[C@@H](O)C2CCCO2)CC4)CC1 (stereo partly drawn) [Compound I-88, (1R)-2-((R)-4-(((1r,4R)-4-(dimethylamino)cyclohexyl)oxy)-6,7-dihydro-5H-cyclopenta[4,5]thieno[2,3-d]pyrimidin-5-yl)-1-(tetrahydrofuran-2-yl)ethanol] | 5.30 to 6.00 | 5.30 to 6.00 | > 5.30
20 | CN(C)[C@H]1CC[C@H](Oc2ncnc3sc4c(c23)[C@@H](CC(N)=O)CC4)CC1 [Compound I-43, 2-[(3R)-12-[[4-(dimethylamino)cyclohexyl]oxy]-7-thia-9,11-diazatricyclo[6.4.0.0[2,6]]dodeca-1(8),2(6),9,11-tetraen-3-yl]acetamide] | 6.00 to 6.30 | 6.00 to 6.30 | > 5.30
21 | [2H]C1([2H])c2sc3ncnc(O[C@H]4CC[C@H](N5CCOCC5)CC4)c3c2[C@@H](CC(N)=O)C1([2H])[2H] [Compound I-188, 2-[(3R)-12-[[4-(morpholin-4-yl)cyclohexyl]oxy](4,4,5,5-d4)-7-thia-9, 11-diazatricyclo[6.4.0.0[2,6]]dodeca-1(8),2(6),9, 11-tetraen-3-yl]acetamide-d4] | ≥ 6.30 | 6.00 to 6.30 | > 5.30
